The subject of assay [1] is MRSA USA300. The assay is described as follows: Two-dimensional carbenicillin-humimycin A synergy susceptibility assay. It counts as cell-based, Staphylococcus aureus. The protocol:
b) Synergy assays. Synergistic β-lactam-humimycin activities were assessed through a two-dimensional (2D) susceptibility assay. Two fold serial dilutions were carried out as described above. Carbenicillin (a β-lactam antibiotic) was diluted serially from left to right, and humimycin was diluted serially from top to bottom. The highest concentration tested for both antibiotics was 32 μg/mL. Fractional inhibitory concentration (FIC) is defined as the ratio of the apparent synergistic MIC divided by the MIC of the antibiotic measured alone.

For assay [2], the system named is MRSA clinical isolates. Type of assay: cell-based, S. aureus. The protocol:
a) Standard assays. Minimal inhibitory concentration (MIC) assays were performed in duplicate in 96-well microtiter plates based on the protocol recommended by Clinical and Laboratory Standards Institute (CLSI, 2012). DMSO stock solutions of syn-BNPs (12.8 mg/mL) were added to the first well in a row and serially diluted (2 fold per transfer) across the microtiter plate. The last well was reserved for a peptide-free control. Overnight cultures of bacteria were diluted 5,000-fold and 50 μL was used as an inoculum in each well. MIC values were determined by visual inspection after 18 h incubation (37° C., static growth).

The results in this text go back to patent publication US20200306337A1, “Bioactive Metabolities Encoded by the Human Microbiome Using Primary Sequence Alone” (The Rockefeller University, priority 2017, published 2020).

Non-standard residues stand in square brackets, D forms with d. Residues, ends and D or L forms follow the SMILES beside them. *: point of attachment. Tetradecanoyl(3S-OH) = CCCCCCCCCCC[C@H](O)CC(=O)*

Turning to `CCCCCCCCCCC[C@H](O)CC(=O)N[C@@H](Cc1ccc(O)cc1)C(=O)N[C@@H](CO)C(=O)N[C@H](Cc1ccc(O)cc1)C(=O)N[C@@H](Cc1ccccc1)C(=O)N[C@@H](C(=O)N[C@H](C(=O)N[C@H](C(=O)O)C(C)C)C(C)C)[C@H](C)O` [Humimycin A] ({Tetradecanoyl(3S-OH)}-YS[dY]F[dT]VV-OH; C-terminus assumed), the “synergy with carbenicillin in inhibiting growth” value in assay [1] (FIC values ≤0.5 defines synergy, n=3) was “act synergistically”. The compound further yielded an MICs in assay [2] of 8 to 128 µg/mL.
As usually defined, the MIC is the lowest concentration that inhibits growth of the organism. As to `CC1(C)S[C@@H]2[C@H](NC(=O)C(C(=O)O)c3ccccc3)C(=O)N2[C@H]1C(=O)O` (stereo partly shown) [carbenicillin], the MIC in assay [1] (Staphylococcus aureus, carbenicillin alone) was 32 µg/mL. In addition, the “MIC of carbenicillin in the presence of humimycin A” value in assay [1] (in the presence of 2 μg/mL humimycin A (0.25×MIC)) worked out at 1 µg/mL.
